# The source made the active and inactive calls. No cut-off for these calls is given here.
# Experiments:
# Colletotrichum acutatum [1] = experiment: Fungicidal activity against Colletotrichum acutatum infested Citrus sinensis assessed as increase in fruit set at 0.5 g/l applied through airblast sprayer during white bud and hollow ball flower stages measured after 70 days relative to control; type: functional, organism-based
# Colletotrichum acutatum [2] = experiment: Fungicidal activity against Colletotrichum acutatum infested Citrus sinensis assessed as increase in fruit set at 0.5 g/l applied through airblast sprayer during white bud flower stage measured after 70 days; type: functional, organism-based
# Colletotrichum acutatum [3] = experiment: Fungicidal activity against Colletotrichum acutatum infested Citrus sinensis assessed as increase in fruit set at 0.5 g/l applied through airblast sprayer during green bud flower stage measured after 70 days; type: functional, organism-based
# Colletotrichum acutatum [4] = experiment: Fungicidal activity against Colletotrichum acutatum infested Citrus sinensis assessed as reduction in number of symptomatic flowers at 0.5 g/l applied through airblast sprayer during green bud until open flower stages measured after 7 days; type: functional, organism-based
# Colletotrichum acutatum [5] = experiment: Fungicidal activity against Colletotrichum acutatum infested Citrus sinensis assessed as reduction in number of symptomatic flowers at 0.5 g/l applied through airblast sprayer during green bud, white bud and hollow ball flower stages measured after 7 days; type: functional, organism-based
# Colletotrichum acutatum [6] = experiment: Fungicidal activity against Colletotrichum acutatum infested Citrus sinensis assessed as reduction in number of symptomatic flowers at 0.5 g/l applied through airblast sprayer during green bud and white bud flower stages measured after 7 days; type: functional, organism-based
# Colletotrichum acutatum [7] = experiment: Fungicidal activity against Colletotrichum acutatum infested Citrus sinensis assessed as reduction in number of symptomatic flowers at 0.5 g/l applied through airblast sprayer during green bud flower stage measured after 7 days; type: functional, organism-based
# Colletotrichum acutatum [8] = experiment: Fungicidal activity against Colletotrichum acutatum infested Citrus sinensis assessed as increase in fruit production per tree at 0.5 g/l applied through airblast sprayer during green bud to white ball flower stages measured after 70 days in presence of KNO3; type: functional, organism-based
# Colletotrichum acutatum [9] = experiment: Fungicidal activity against Colletotrichum acutatum infested Citrus sinensis assessed as increase in fruit set percentage at 0.5 g/l applied through airblast sprayer during green bud to white ball flower stages measured after 70 days in presence of KNO3; type: functional, organism-based
# Colletotrichum acutatum [10] = experiment: Fungicidal activity against Colletotrichum acutatum infested Citrus sinensis assessed as reduction in persistant calyces at 0.5 g/l applied through airblast sprayer during green bud to white ball flower stages measured after 7 days; type: functional, organism-based
# Colletotrichum acutatum [11] = experiment: Fungicidal activity against Colletotrichum acutatum infested Citrus sinensis assessed as increase in fruit set percentage at 0.5 g/l applied through airblast sprayer during green bud to white ball flower stages measured after 70 days; type: functional, organism-based
# Colletotrichum acutatum [12] = experiment: Fungicidal activity against Colletotrichum acutatum infested Citrus sinensis assessed as increase in fruit production per tree at 0.5 g/l applied through airblast sprayer during green bud to white ball flower stages measured after 70 days; type: functional, organism-based
# Colletotrichum acutatum [13] = experiment: Fungicidal activity against Colletotrichum acutatum infested Citrus sinensis assessed as total fruit weight per plant at 0.5 g/l applied through airblast sprayer during white bud and hollow ball flower stages measured after 70 days (Rvb =49.88 kg); type: functional
# Colletotrichum acutatum [14] = experiment: Fungicidal activity against Colletotrichum acutatum infested Citrus sinensis assessed as total fruit weight per plant at 0.5 g/l applied through airblast sprayer during green bud and hollow ball flower stages measured after 70 days (Rvb =49.88 kg); type: functional
# Colletotrichum acutatum [15] = experiment: Fungicidal activity against Colletotrichum acutatum infested Citrus sinensis assessed as total fruit weight per plant at 0.5 g/l applied through airblast sprayer during open flower stage measured after 70 days (Rvb =49.88 kg); type: functional
# Colletotrichum acutatum [16] = experiment: Fungicidal activity against Colletotrichum acutatum infested Citrus sinensis assessed as total fruit weight per plant at 0.5 g/l applied through airblast sprayer during hollow ball flower stage measured after 70 days (Rvb =49.88 kg); type: functional
# Colletotrichum acutatum [17] = experiment: Fungicidal activity against Colletotrichum acutatum infested Citrus sinensis assessed as total fruit weight per plant at 0.5 g/l applied through airblast sprayer during green bud until open flower stages measured after 70 days (Rvb =65.90 kg); type: functional
# Colletotrichum acutatum [18] = experiment: Fungicidal activity against Colletotrichum acutatum infested Citrus sinensis assessed as total fruit weight per plant at 0.5 g/l applied through airblast sprayer during green bud, white bud and hollow ball flower stages measured after 70 days (Rvb =65.90 kg); type: functional
# Colletotrichum acutatum [19] = experiment: Fungicidal activity against Colletotrichum acutatum infested Citrus sinensis assessed as total fruit weight per plant at 0.5 g/l applied through airblast sprayer during green bud and white bud flower stages measured after 70 days (Rvb =65.90 kg); type: functional
# Colletotrichum acutatum [20] = experiment: Fungicidal activity against Colletotrichum acutatum infested Citrus sinensis assessed as total fruit weight per plant at 0.5 g/l applied through airblast sprayer during green bud flower stage measured after 70 days (Rvb =65.90 kg); type: functional
# Colletotrichum acutatum [21] = experiment: Fungicidal activity against Colletotrichum acutatum infested Citrus sinensis assessed as increase in fruit set at 0.5 g/l applied through airblast sprayer during open flower stage measured after 70 days; type: functional, organism-based
# Colletotrichum acutatum [22] = experiment: Fungicidal activity against Colletotrichum acutatum infested Citrus sinensis assessed as reduction in symptomatic flowers at 0.5 g/l applied through airblast sprayer during open flower stage measured after 7 days; type: functional, organism-based
# Colletotrichum acutatum [23] = experiment: Fungicidal activity against Colletotrichum acutatum infested Citrus sinensis assessed as reduction in symptomatic flowers at 0.5 g/l applied through airblast sprayer during hollow ball flower stage measured after 7 days; type: functional, organism-based
# Colletotrichum acutatum [24] = experiment: Fungicidal activity against Colletotrichum acutatum infested Citrus sinensis assessed as reduction in symptomatic flowers at 0.5 g/l applied through airblast sprayer during white bud and hollow ball flower stages measured after 7 days; type: functional, organism-based
# Colletotrichum acutatum [25] = experiment: Fungicidal activity against Colletotrichum acutatum infested Citrus sinensis assessed as reduction in symptomatic flowers at 0.5 g/l applied through airblast sprayer during green bud and hollow ball flower stages measured after 7 days; type: functional, organism-based
smiles,measurement,setting,value
COC(=O)Nc1nc2ccccc2[nH]1 [CARBENDAZIM],Activity,Colletotrichum acutatum [1],Active
same,Activity,Colletotrichum acutatum [2],Active
same,Activity,Colletotrichum acutatum [3],Active
same,Activity,Colletotrichum acutatum [4],Active
same,Activity,Colletotrichum acutatum [5],Active
same,Activity,Colletotrichum acutatum [6],Active
same,Activity,Colletotrichum acutatum [7],Active
same,Activity,Colletotrichum acutatum [8],Active
same,Activity,Colletotrichum acutatum [9],Active
same,Activity,Colletotrichum acutatum [10],Active
same,Activity,Colletotrichum acutatum [11],Active
same,Activity,Colletotrichum acutatum [12],Active
same,Activity,Colletotrichum acutatum [13],63.5 kg
same,Activity,Colletotrichum acutatum [14],73.8 kg
same,Activity,Colletotrichum acutatum [15],59 kg
same,Activity,Colletotrichum acutatum [16],57 kg
same,Activity,Colletotrichum acutatum [17],114.9 kg
same,Activity,Colletotrichum acutatum [18],102.4 kg
same,Activity,Colletotrichum acutatum [19],67.9 kg
same,Activity,Colletotrichum acutatum [20],53.7 kg
same,Activity,Colletotrichum acutatum [21],inactive
same,Activity,Colletotrichum acutatum [22],inactive
same,Activity,Colletotrichum acutatum [23],Active
same,Activity,Colletotrichum acutatum [24],Active
same,Activity,Colletotrichum acutatum [25],Active

# — ChEMBL document CHEMBL3044960, “Evaluation of fungicide applications to sweet orange at different flowering stages for control of postbloom fruit drop caused by Colletotrichum acutatum” (2008)
